Source: PubChem BioAssay (NCI)
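Abbreviation: GI50, concentration required for 50% inhibition of growth. Definition used: TGI = concentration required for complete inhibition of growth.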

Columns and labels:
Assay in all cases: growth of human tumour cells (NCI), 384-well format; in the data active = GI50 below about 0.43 µM; inactive = the rest
[1] = tested on: OVCAR-3 ovarian
[2] = tested on: NCI/ADR-RES ovarian
[3] = tested on: NCI-H522 lung
[4] = tested on: TK-10 renal
[5] = tested on: LOX IMVI melanoma
[6] = tested on: UACC-62 melanoma
[7] = tested on: MDA-MB-435 melanoma
[8] = tested on: HOP-62 NSCLC
[9] = tested on: OVCAR-4 ovarian
[10] = tested on: PC-3 prostate
[11] = tested on: A498 renal
[12] = tested on: HCT-15 colon
[13] = tested on: MCF7 breast
[14] = tested on: A549 NSCLC
[15] = tested on: HT29 colon
[16] = tested on: MDA-MB-468 breast
[17] = tested on: IGROV1 ovarian
[18] = tested on: KM12 colon
[19] = tested on: SR leukemia
[20] = tested on: RPMI-8226 leukemia
[21] = tested on: SN12C renal
[22] = tested on: UO-31 renal
[23] = tested on: NCI-H460 NSCLC
[24] = tested on: T-47D breast
[25] = tested on: CAKI-1 renal
[26] = tested on: M14 melanoma
[27] = tested on: MDA-MB-231 breast
[28] = tested on: NCI-H23 lung
[29] = tested on: EKVX NSCLC
[30] = tested on: HS 578T breast
[31] = tested on: HCC-2998 colon
[32] = tested on: SK-MEL-5 melanoma
[33] = tested on: HOP-92 NSCLC
[34] = tested on: SF-295 CNS
[35] = tested on: MOLT-4 leukemia
[36] = tested on: OVCAR-5 ovarian
[37] = tested on: BT-549 breast
[38] = tested on: MALME-3M melanoma
[39] = tested on: NCI-H322M lung
[40] = tested on: UACC-257 melanoma
[41] = tested on: SF-539 CNS
[42] = tested on: HL-60(TB) leukemia
[43] = tested on: SK-OV-3 ovarian
[44] = tested on: DU-145 prostate
[45] = tested on: SK-MEL-28 melanoma
[46] = tested on: RXF 393 renal
[47] = tested on: ACHN renal
[48] = tested on: CCRF-CEM leukemia
[49] = tested on: SF-268 CNS
[50] = tested on: 786-0 renal
[51] = tested on: K-562 leukemia
[52] = tested on: SNB-19 CNS
[53] = tested on: COLO 205 colon
[54] = tested on: SW-620 colon
[55] = tested on: NCI-H226 lung
[56] = tested on: SNB-75 CNS
[57] = tested on: OVCAR-8 ovarian

[2H]C([2H])([2H])NC(=O)c1nnc(NC(=O)C2CC2)cc1Nc1cccc(-c2ncn(C)n2)c1OC
27.6 µM: TGI [20]
36.8 µM: TGI [35]
42.3 µM: TGI [16]
84.9 µM: TGI [8]
48.6 µM: TGI [48]
> 100 µM: TGI [1] | TGI [2] | TGI [3] | TGI [4] | TGI [5] | TGI [6] | TGI [7] | TGI [9] | TGI [10] | TGI [11] | TGI [12] | TGI [13] | TGI [14] | TGI [15] | TGI [17] | TGI [18] | TGI [19] | TGI [21] | TGI [22] | TGI [23] | TGI [24] | TGI [25] | TGI [26] | TGI [27] | TGI [28] | TGI [29] | TGI [30] | TGI [31] | TGI [32] | TGI [33] | TGI [34] | TGI [36] | TGI [37] | TGI [38] | TGI [39] | TGI [40] | TGI [41] | TGI [44] | TGI [45] | TGI [46] | TGI [47] | TGI [49] | TGI [50] | TGI [51] | TGI [52] | TGI [53] | TGI [54] | TGI [55] | TGI [56] | TGI [57]
26.7 µM: TGI [42]
87.6 µM: TGI [43]
inactive: GI50 [1] 41.6 µM | GI50 [2] 37.4 µM | GI50 [3] 79.1 µM | GI50 [4] > 100 µM | GI50 [5] 25 µM | GI50 [6] 25.5 µM | GI50 [7] > 100 µM | GI50 [8] 25.1 µM | GI50 [9] > 100 µM | GI50 [10] 77.9 µM | GI50 [11] 6.3 µM | GI50 [12] 12.9 µM | GI50 [13] > 100 µM | GI50 [14] 84.4 µM | GI50 [15] > 100 µM | GI50 [16] 13.3 µM | GI50 [17] 26.4 µM | GI50 [18] 30.2 µM | GI50 [19] 29.9 µM | GI50 [20] 3.93 µM | GI50 [21] 32.6 µM | GI50 [22] > 100 µM | GI50 [23] 21.3 µM | GI50 [24] > 100 µM | GI50 [25] 14.6 µM | GI50 [26] 22.8 µM | GI50 [27] 29.2 µM | GI50 [28] 43.7 µM | GI50 [29] > 100 µM | GI50 [30] 18 µM | GI50 [31] > 100 µM | GI50 [32] 36.8 µM | GI50 [33] 25.4 µM | GI50 [34] 33.2 µM | GI50 [35] 15.9 µM | GI50 [36] > 100 µM | GI50 [37] > 100 µM | GI50 [38] 32.2 µM | GI50 [39] 23.3 µM | GI50 [40] > 100 µM | GI50 [41] 79.2 µM | GI50 [42] 10.9 µM | GI50 [43] 5.93 µM | GI50 [44] 16.4 µM | GI50 [45] 72.9 µM | GI50 [46] > 100 µM | GI50 [47] 16.6 µM | GI50 [48] 16.6 µM | GI50 [49] > 100 µM | GI50 [50] 66.2 µM | GI50 [51] 43.4 µM | GI50 [52] 87.4 µM | GI50 [53] > 100 µM | GI50 [54] 93.5 µM | GI50 [55] 43.9 µM | GI50 [56] 87.9 µM | GI50 [57] 43.6 µM
